For 2 compounds, IC50 and Kd results are on record in ChEMBL document CHEMBL2169811, “Oncoepigenomics: making histone lysine methylation count” (Eur J Med Chem, 2012).

SMILES strings stand for the structures. pIC50, pKd: −log10 of the molar value. Where only a bound is given, the exact number is not on record here.

Assay [1] has as its target T1, Histone-lysine N-methyltransferase EHMT2 (Homo sapiens, UniProt Q96KQ7).
T1 sequence (Q96KQ7 whole entry): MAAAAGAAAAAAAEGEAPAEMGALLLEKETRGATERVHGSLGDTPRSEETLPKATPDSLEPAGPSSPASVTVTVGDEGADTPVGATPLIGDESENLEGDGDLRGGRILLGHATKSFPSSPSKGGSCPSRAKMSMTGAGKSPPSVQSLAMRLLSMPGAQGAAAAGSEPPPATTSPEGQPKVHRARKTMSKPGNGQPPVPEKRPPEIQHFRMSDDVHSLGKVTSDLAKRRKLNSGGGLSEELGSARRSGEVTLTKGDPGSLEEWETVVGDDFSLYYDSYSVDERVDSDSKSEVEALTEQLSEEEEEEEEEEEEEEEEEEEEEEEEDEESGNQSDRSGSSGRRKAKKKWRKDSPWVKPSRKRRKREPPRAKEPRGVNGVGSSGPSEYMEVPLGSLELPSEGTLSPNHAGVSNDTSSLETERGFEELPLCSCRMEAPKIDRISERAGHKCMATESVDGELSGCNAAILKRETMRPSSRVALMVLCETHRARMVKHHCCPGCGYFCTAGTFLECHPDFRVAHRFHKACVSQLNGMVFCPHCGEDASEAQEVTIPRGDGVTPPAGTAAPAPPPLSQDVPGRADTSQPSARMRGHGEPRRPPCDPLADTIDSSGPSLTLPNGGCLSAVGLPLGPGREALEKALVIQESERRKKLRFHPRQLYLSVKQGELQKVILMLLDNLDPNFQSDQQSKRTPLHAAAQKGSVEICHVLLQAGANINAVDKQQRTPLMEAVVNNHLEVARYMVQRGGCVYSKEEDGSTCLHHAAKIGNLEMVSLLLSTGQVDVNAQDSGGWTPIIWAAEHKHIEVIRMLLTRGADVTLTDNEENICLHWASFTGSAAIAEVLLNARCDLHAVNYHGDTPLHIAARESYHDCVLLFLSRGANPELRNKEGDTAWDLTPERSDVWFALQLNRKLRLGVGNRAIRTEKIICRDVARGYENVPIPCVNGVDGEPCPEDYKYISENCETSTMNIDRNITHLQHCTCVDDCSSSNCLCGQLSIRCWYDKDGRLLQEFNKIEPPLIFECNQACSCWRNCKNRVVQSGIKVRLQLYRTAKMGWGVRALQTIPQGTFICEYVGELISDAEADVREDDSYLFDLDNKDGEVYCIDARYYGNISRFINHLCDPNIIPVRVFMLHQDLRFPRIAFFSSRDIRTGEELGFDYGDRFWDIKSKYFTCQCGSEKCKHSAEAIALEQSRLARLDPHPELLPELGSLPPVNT
Put plainly: Inhibition of human recombinant G9a catalytic domain amino acid 913 to 1193 expressed in Escherichia coli BL21 (DE3) by mass spectrophotometric assay.

Assay [2] deals with T2, Histone-lysine N-methyltransferase EHMT1 (Homo sapiens, UniProt Q9H9B1).
T2 sequence (Q9H9B1 whole entry): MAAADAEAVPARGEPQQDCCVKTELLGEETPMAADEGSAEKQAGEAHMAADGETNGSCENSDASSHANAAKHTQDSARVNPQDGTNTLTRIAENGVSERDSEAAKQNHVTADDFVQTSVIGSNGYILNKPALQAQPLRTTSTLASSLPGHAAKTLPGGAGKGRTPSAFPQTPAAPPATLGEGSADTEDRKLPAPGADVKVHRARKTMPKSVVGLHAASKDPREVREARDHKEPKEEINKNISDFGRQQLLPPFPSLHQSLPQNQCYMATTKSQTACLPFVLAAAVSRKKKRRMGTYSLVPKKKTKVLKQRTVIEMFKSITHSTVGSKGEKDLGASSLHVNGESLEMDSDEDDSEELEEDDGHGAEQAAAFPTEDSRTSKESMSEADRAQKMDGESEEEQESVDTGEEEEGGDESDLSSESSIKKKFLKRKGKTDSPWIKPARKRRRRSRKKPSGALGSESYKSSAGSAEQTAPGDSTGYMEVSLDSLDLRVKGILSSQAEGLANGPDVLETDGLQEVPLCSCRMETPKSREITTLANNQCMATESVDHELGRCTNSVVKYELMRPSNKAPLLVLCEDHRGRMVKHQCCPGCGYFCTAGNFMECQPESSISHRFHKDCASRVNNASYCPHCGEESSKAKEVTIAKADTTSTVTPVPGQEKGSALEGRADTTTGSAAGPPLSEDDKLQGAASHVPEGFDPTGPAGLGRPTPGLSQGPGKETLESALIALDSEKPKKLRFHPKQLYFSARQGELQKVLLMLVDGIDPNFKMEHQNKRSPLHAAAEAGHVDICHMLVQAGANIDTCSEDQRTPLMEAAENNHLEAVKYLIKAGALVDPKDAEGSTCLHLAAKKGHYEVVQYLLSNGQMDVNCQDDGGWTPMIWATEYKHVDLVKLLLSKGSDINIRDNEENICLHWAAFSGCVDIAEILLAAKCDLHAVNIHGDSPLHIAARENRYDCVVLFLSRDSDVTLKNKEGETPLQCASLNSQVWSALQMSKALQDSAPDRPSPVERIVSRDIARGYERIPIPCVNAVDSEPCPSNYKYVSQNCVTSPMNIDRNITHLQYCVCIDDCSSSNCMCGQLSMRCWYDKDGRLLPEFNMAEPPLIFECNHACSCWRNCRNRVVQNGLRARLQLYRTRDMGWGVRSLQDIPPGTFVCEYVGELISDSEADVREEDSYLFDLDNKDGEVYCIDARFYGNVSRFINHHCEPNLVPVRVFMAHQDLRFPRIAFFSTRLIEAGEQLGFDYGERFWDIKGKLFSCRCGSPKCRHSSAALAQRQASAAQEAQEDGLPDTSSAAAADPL
Put plainly: Binding affinity to human recombinant GLP catalytic domain amino acid 951 to 1235 expressed in Escherichia coli BL21 (DE3) by isothermal titration calorimetry assay.

Assay [3] concerns the target T1, Histone-lysine N-methyltransferase EHMT2. Put plainly: Binding affinity to human recombinant G9a catalytic domain amino acid 913 to 1193 expressed in Escherichia coli BL21 (DE3) by isothermal titration calorimetry assay.
Assay [4] is described as follows: Inhibition of Drosophila melanogaster SET7/9.
Assay [5] has as its target T3, Histone-lysine N-methyltransferase Set8 (Drosophila melanogaster, UniProt Q9VFK6).
T3 sequence (Q9VFK6 whole entry): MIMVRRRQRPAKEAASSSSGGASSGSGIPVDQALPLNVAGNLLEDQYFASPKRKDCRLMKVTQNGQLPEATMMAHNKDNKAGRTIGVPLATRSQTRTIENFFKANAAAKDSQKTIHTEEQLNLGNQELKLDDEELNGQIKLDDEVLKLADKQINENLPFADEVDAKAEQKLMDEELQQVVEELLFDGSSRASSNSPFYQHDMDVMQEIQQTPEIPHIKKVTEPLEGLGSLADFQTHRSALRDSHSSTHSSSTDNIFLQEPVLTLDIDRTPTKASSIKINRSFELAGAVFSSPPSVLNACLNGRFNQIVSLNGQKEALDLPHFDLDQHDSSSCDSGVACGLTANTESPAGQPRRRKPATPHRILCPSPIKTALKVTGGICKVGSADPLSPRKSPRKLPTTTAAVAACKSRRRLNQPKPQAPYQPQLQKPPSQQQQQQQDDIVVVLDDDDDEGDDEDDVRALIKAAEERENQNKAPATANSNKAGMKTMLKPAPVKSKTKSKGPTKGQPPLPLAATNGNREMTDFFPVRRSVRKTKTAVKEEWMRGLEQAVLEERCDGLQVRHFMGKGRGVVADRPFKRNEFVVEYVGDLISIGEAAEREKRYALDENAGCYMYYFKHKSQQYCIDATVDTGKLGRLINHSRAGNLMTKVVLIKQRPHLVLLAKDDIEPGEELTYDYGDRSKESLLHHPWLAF
The experiment in a line: Inhibition of Drosophila melanogaster PRSET7.

Assay [6] can be described thus: Inhibition of Neurospora crassa dim5.
The target of assay [7] is Histone-lysine N-methyltransferase E(z) (Drosophila melanogaster, UniProt P42124). The experiment in a line: Inhibition of Drosophila melanogaster E(Z).
The target in assay [8] is T4, Histone-lysine N-methyltransferase SUV39H1 (Homo sapiens, UniProt O43463).
T4 sequence (O43463 whole entry): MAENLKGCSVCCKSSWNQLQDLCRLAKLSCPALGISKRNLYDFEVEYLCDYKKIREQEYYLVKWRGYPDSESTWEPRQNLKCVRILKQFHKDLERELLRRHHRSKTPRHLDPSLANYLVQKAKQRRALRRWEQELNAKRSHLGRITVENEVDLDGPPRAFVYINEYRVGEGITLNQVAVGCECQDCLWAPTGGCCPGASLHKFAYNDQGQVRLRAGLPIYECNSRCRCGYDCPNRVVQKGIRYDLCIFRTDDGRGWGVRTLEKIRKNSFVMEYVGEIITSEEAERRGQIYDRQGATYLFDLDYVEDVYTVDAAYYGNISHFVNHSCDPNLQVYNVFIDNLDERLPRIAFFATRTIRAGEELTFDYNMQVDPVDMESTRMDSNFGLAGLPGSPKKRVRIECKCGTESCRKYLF
The experiment in a line: Inhibition of human SUV39H1.

Assay [9] deals with T1, Histone-lysine N-methyltransferase EHMT2.
Description: Inhibition of GST-tagged G9a after 1 hr by radioactive filter-binding assay

Sequence of Histone-lysine N-methyltransferase E(z) (P42124 whole entry): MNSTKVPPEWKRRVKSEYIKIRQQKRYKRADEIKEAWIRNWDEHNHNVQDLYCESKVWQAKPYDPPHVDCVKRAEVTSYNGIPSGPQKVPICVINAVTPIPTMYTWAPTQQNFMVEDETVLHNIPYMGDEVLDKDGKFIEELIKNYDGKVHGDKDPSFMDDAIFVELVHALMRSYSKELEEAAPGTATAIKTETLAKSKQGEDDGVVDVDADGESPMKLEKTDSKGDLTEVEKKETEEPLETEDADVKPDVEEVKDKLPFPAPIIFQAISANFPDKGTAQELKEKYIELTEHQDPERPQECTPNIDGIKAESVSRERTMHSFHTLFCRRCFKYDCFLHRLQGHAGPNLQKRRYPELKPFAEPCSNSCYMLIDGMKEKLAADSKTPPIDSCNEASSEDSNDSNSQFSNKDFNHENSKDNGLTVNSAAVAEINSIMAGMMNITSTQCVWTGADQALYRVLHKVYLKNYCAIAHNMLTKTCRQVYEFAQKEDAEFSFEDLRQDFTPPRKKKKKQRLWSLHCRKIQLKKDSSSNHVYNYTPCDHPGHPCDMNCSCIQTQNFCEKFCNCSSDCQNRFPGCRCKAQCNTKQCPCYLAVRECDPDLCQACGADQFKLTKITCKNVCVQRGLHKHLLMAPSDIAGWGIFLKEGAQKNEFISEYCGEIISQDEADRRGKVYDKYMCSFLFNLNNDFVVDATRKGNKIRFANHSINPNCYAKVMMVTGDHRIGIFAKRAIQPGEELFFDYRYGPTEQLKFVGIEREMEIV

As to `COc1cc2c(NC3CCN(CCCCCN)CC3)nc(NCCCN(C)C)nc2cc1OCCCCCN`, the pIC50 in assay [1] was 5.89. The negative-log Kd (pKd) in [2] was 6.87; in [3], 6.79.
Regarding `CN1C(=O)[C@@]23C[C@]4([C@]56C[C@@]78SS[C@@](CO)(C(=O)N7[C@H]5Nc5ccccc56)N(C)C8=O)c5ccccc5N[C@@H]4N2C(=O)[C@]1(CO)SS3` [CHAETOCIN], the pIC50 in assay [4] is below 4.05; in assay [5], below 4.05; in assay [6], 5.52; in assay [7], below 4.05; in assay [8], 6.10; in assay [9] it was 5.62.
